The text below walks through data of patent US20240002429A1, “PRODRUG OF 5a-HYDROXY-6ß-[2-(1H-IMIDAZOL-4-YL)ETHYLAMINO]CHOLESTAN-3ß-OL AND PHARMACEUTICAL COMPOSITIONS COMPRISING SAME FOR USE IN THE TREATMENT OF CANCER” (priority 2020, published 2024).

Data set [1] can be described thus: Pharmacokinetic study of DX107 (LC/MS in plasma). Type of data set: in vivo. As to conditions: rat, oral 50 mg/kg, administered compound assayed; for Area under curve: 0-72 h. The text has this: The following study is determination by LC/MS in plasma of the various molecules over 3 days (11 measurement points at the end). The graphs are always presented in comparison with DX101, which is the reference. […]

For data set [2], the target named is T1, cholesterol epoxide hydrolase (ChEH) (Homo sapiens, UniProt Q15125).
T1 construct: endogenous in cells; host or cells: MCF-7
The experiment in a line: Activity of cholesterol epoxide hydrolase (ChEH) in MCF-7 cells, [14C]5,6α-EC metabolization by TLC. Type of data set: cell-based. As to conditions: MCF-7, 1 μM, 24 h, [14C]5,6α-EC 0.6 μM. The text has this: The compounds 5,6α-epoxycholesterol (5,6α-EC) and 5,6β-epoxycholesterol (5,6β-EC) are oxysterols involved in the anticancer pharmacology of tamoxifen, a widely used antitumor drug. They are both metabolized in cholestan-3β,5α,6β-triol (CT) by the enzyme cholesterol-5,6-epoxide hydrolase (ChEH), and CT is metabolized by the enzyme HSD11B2 (11β-hydroxysteroid dehydrogenase 2) to 6-oxo-cholestan-3β,5α-diol (OCDO), an oncosterone tumor promoter.
MCF-7 cells are in a cell culture medium identical to example 20 and are seeded in 6-well plates at 150000 cells per well with 3 wells per treatment condition. 24 h after seeding, the MCF-7 cells are treated with [^14C]5,6α-EC (stock solution 1000×: 0.6 mM; 20 μCi/μmol; final concentration 0.6 μM) alone or in combination with tamoxifen (tam). Tamoxifen is used as positive control of the study compounds. The treatment with the compound according to the invention is carried out at a concentration of 1 μM.
After 24 hours of treatment, the media are collected and lipid extracts are prepared from the cell pellets by extraction with 100 μL of chloroform, 400 μL of methanol and 300 μL of water. The lipid extracts are analyzed by thin-layer chromatography (TLC) using ethyl acetate (EtOAc) as eluent. The analysis is carried out using a plate reader and then by autoradiography.

Data set [3] relates to BT-474 human mammary tumor cells. The experiment in a line: Cytotoxicity on BT-474 cells, MTT. Type of data set: cell-based. As to conditions: BT-474, MTT, 48 h; for Mean LogIC50 (±SEM): log of IC50 in μM; for IC50: Homo sapiens, read-out: IC50. As for the experimental part:
Cellular viability is measured by three different methods. For the first method, MTT labeling is carried out at 48 hours. This test is based on the use of the tetrazolium salt MTT (3-(4,5-dimethylthiazol-2-yl)-2,5-diphenyltetrazolium bromide). The tetrazolium is reduced by mitochondrial succinate dehydrogenase of active living cells, to formazan, a precipitate of a violet color. The quantity of precipitate formed is proportional to the quantity of living cells but also to the metabolic activity of each cell. […] After 48 hours, the medium is aspirated, and the cells are incubated with MTT (0.5 mg/ml in culture medium) for about 3 hours. The MTT solution is aspirated and the violet crystals are dissolved in dimethylsulfoxide (DMSO). The OD (optical density) is measured at 550 nm. The percentage viability is then determined in each well relative to the CTL and the IC50 (concentration for which there are still 50% of living cells) is determined for each molecule with Prism software using the nonlinear regression straight line (log(inhibitor) vs. Response).
The cellular viability tests were also carried out on BT-474 human mammary tumor cells (characterized as being positive triples HER2+, ER+, PR+). The BT-474 cells are in a cell culture medium identical to the preceding example and are seeded in 24-well plates at 70 000 cells per well, for determination of cellular viability using trypan blue, or in 96-well plates at 13 000 cells per well for determination of cellular viability using the MTT or LDH assay. After 96 hours (h) of culture in normal conditions, i.e. in an incubator at a temperature of 37° C. at 5% CO2, the BT-474 cells are treated for 48 h with DX101, DX107, and DX113 at 100 nM, 1 μM, 2.5 μM and 10 μM. A control is also carried out using the protocol described above but without treatment with the molecules DX101, DX107, DX113, DX117, DX119, DX121 or DX131.
After trypsin digestion for 10 minutes at 37° C., cell survival was quantified, also by a trypan blue assay with automatic counting with the Biorad TC20 equipment (TC20™ Automated Cell Counter). The trypan blue assay is based on the cell membrane integrity, which is broken in the dead cells. Trypan blue stains the dead cells blue. The Biorad TC20 cell counter counts the proportion of blue cells and non-blue cells, relative to the cell percentages. The percentage viability is then determined in each well relative to the untreated cells and the IC50 is determined as explained in the preceding example. The percentage viability of the BT-474 cells was determined using the MTT and LDH assay, carried out as described in the preceding example.

The next data set deals with 4T1 tumors. As to the kind of experiment: Effect on 4T1 tumor growth and survival in vivo. As to conditions: 4T1 tumors in Balb/c mice, 40 mg/kg by stomach tube every day; for Median survival: Kaplan-Meier; for Inhibition of tumor growth: day 8 vs day 0. As for the experimental part: All the procedures on the animals were carried out in accordance with the guidelines of our institution after being approved by the ethics committee. The 4T1 cells were cultured as before, and were dissociated in trypsin and washed twice in cold PBS and resuspended in PBS at 1.5 million/mL. The 4T1 tumors were obtained by subcutaneous transplantation of 0.150 million cells in 100 μL in the flank of female Balb/c mice (9 weeks, January). When the tumors reached a volume of 50-100 mm^3, the mice were fed by stomach tube with 40 mg/kg of DX101 or 40 mg/kg of […] or the control vehicle (water). The treatment was carried out every day until the end of the experiment (tumor volume >1000 mm^3). The tumor volume was determined every day using a caliper gauge and calculated from the formula: ½×(Length*Width^2). The percentage inhibition of tumor growth was determined from the following formula: 100×(1−(tumor volume, day 8/tumor volume day 0)DX107)/(1−(tumor volume, day 8/tumor volume day 0)vehicle).
The Kaplan-Meier method was used for comparing the animals' survival.

Broadly, the IC50 is the midpoint of a concentration-inhibition curve.

T1 sequence (Q15125 whole entry): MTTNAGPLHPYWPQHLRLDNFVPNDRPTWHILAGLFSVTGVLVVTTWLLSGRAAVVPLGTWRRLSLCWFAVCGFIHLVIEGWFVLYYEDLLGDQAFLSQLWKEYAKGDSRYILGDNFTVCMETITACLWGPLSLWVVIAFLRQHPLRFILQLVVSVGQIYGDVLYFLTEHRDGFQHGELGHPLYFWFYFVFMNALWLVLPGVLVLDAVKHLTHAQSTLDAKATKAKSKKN

Consider `CC(C)CCC[C@@H](C)[C@H]1CC[C@H]2[C@@H]3C[C@@H](NCCc4c[nH]cn4)[C@@]4(O)C[C@@H](O)CC[C@]4(C)[C@H]3CC[C@]12C` [DX101, 5α-hydroxy-6β-[2-(1H-imidazol-4-yl)-ethylamino]-cholestan-3β-ol, reference compound], for which, in data set [1], the Concentration max amounted to 140 nM and the Area under curve was 143297. The “inhibition of ChEH activity” value in data set [2] was “almost total (trace of CT)”. Further, in data set [3], the “Mean LogIC50 (±SEM)” value amounted to 0.85 ± 0.02 and the IC50 is 7.06 µM. Besides, in the data set on 4T1 tumors, the Median survival is recorded as 9 days and the “Inhibition of tumor growth” value stood at 58%.
For the compound `CCC(=O)O[C@H]1CC[C@]2(C)[C@H]3CC[C@]4(C)[C@@H]([C@H](C)CCCC(C)C)CC[C@H]4[C@@H]3C[C@@H](NCCc3c[nH]cn3)[C@@]2(O)C1` [DX107, 5α-hydroxy-6β-[2-(1H-imidazol-4-yl)ethylamino]cholestan-3β-yl propionate], in data set [1], the Concentration max is reported as 142 nM and the Area under curve was determined as 89733. For the same compound, in data set [2], the “inhibition of ChEH activity” value is “inhibition of ChEH is observed relative to the control (1), but it is less than the positive control (2)”. Moreover, in data set [3], the “Mean LogIC50 (±SEM)” value was determined as 1.08 ± 0.04 and the IC50 was determined as 11.9 µM. In the data set on 4T1 tumors, the Median survival was 14 days and the “Inhibition of tumor growth” value came to 78%.
